Assay results: US12550899B2, “Topramezone derivative and use thereof” (priority 2023, dated 2026)

Experiments:
Assay type in all cases: in vivo
Amaranthus retroflexus = assay: Laboratory bioactivity efficacy test 2.1 (foliar spray); conditions: for GR50 / GR90: fresh weight control efficacy 14 days after application
Text: (§1) Refer to the “Pesticides guidelines for laboratory bioactivity tests Part 4: Foliar spray application test for herbicide activity, NY/T 1155.4-2006”.
(§2) • grassy weeds: Setaria viridis, Chloris virgata; • sedge: Cyperus rotundus; • Broadleaf weeds: Amaranthus retroflexus, Chenopodium album, Acalypha australis, Commelina communis, Convolvulus arvensis, Cirsium setosum, and Eclipta prostrata. 2.1.3 Test Conditions
(§3) The soil used for the test was a mixture of surface 20 cm loam and vermiculite, mixed in a volume ratio of 3:1 to form a culture soil. The test corn was cultured in a glass greenhouse with a temperature ranging from 25° C. to 35° C. and under natural light.
(§4) A measured quantity of weed seeds were sown in plastic pots with a diameter of 9 cm, and covered with 1-2 mm of soil. The ports were then placed in enamel trays filled with water, and watered by bottom irrigation. After sowing, the pots were transferred to the glass greenhouse for cultivation and growth.
(§5) Five dosages were set for Compound I, Compound II and the control herbicide Topramezone, which were 3.75, 7.5, 15, 30 and 60 grams of active ingredient per hectare respectively. In addition, a blank control was also prepared.
(§6) The required amount of the herbicide was accurately measured out, an appropriate amount of emulsifier and organic solvent were added to dissolve the herbicide, and then a certain amount of water was added therein until the herbicide was diluted to the required dosage by using the serial dilution method for standby.
(§7) The fresh weight of each treatment was surveyed 14 days after the application of the herbicide. The fresh weight control efficacy was calculated according to the following formula: fresh weight control efficacy (%)=(control fresh weight−treatment fresh weight)/control fresh weight×100.
(§8) A DPS statistical software was used to conduct regression analysis on the logarithmic values of the herbicide dosage and the probit values of the corn fresh weight control efficacy, and the correlation coefficient, GR50, GR90, and the 95% confidence interval were calculated.

Commelina communis = assay: as above; conditions: for GR50 / GR90: fresh weight control efficacy 14 days after application
Text: as §1, §2, §3, §4, §5, §6, §7, §8

Cirsium setosum = assay: as above; conditions: for GR50 / GR90: fresh weight control efficacy 14 days after application
Text: as §1, §2, §3, §4, §5, §6, §7, §8

Setaria viridis = assay: as above; conditions: for GR50 / GR90: fresh weight control efficacy 14 days after application
Text: as §1, §2, §3, §4, §5, §6, §7, §8

Chloris virgata = assay: as above; conditions: for GR50 / GR90: fresh weight control efficacy 14 days after application
Text: as §1, §2, §3, §4, §5, §6, §7, §8

Cyperus rotundus = assay: as above; conditions: for GR50 / GR90: fresh weight control efficacy 14 days after application
Text: as §1, §2, §3, §4, §5, §6, §7, §8

Eclipta prostrata = assay: as above; conditions: for GR50 / GR90: fresh weight control efficacy 14 days after application
Text: as §1, §2, §3, §4, §5, §6, §7, §8

Convolvulus arvensis = assay: as above; conditions: for GR50 / GR90: fresh weight control efficacy 14 days after application
Text: as §1, §2, §3, §4, §5, §6, §7, §8

Acalypha australis = assay: as above; conditions: for GR50 / GR90: fresh weight control efficacy 14 days after application
Text: as §1, §2, §3, §4, §5, §6, §7, §8

Chenopodium album = assay: as above; conditions: for GR50 / GR90: fresh weight control efficacy 14 days after application
Text: as §1, §2, §3, §4, §5, §6, §7, §8

[1] = system: test weeds (grassy weeds, sedge, broadleaf weeds); assay: Laboratory bioactivity efficacy test 2.1, symptoms on the test weeds; conditions: test 2.1 weeds
Text: as §1, §2, §3, §4, §5, §6, §7

[2] = system: grassy weeds and broadleaf weeds; assay: Laboratory bioactivity efficacy test 2.2, visual observation of weeds
Method: • grassy weeds: Digitaria sanguinalis, Eleusine indica, Echinochloa crusgalli; • Broadleaf weeds: Portulaca oleracea, Abutilon theophrasti medicus. 2.2.2 Test Conditions
The soil used for the test was a mixture of surface 20 cm loam and vermiculite, mixed in a volume ratio of 3:1 to form a culture soil. The test weeds were cultured in a glass greenhouse with a temperature ranging from 25° C. to 35° C. and under natural light.
Quantified seeds of Digitaria sanguinalis, Eleusine indica, Echinochloa crusgalli, Portulaca oleracea, and Abutilon theophrasti medicus were sown in plastic pots with a diameter of 9 cm, and covered with 1-2 mm of soil. The ports were then placed in enamel trays filled with water, and watered by bottom irrigation. After the water seeped to the soil surface, the pots were transferred to the glass greenhouse for standby.
as §5
The required amount of the herbicide was accurately measured out and directly added with water, which was diluted to the required dosage by using the serial dilution method for standby.
The test was conducted on grassy weeds at the two-leaf and one-heart stage, Abutilon theophrasti medicus at the 2-true-leaf stage, and Portulaca oleracea at the 3-5-leaf stage, with the stems and leaves both sprayed uniformly. The ASS-4 automatic control spraying system with a fan-shaped nozzle was used indoors for herbicide application. Depending on the nozzle pressure and flow rate, 50 mL of herbicide solution was applied to a spraying area of 1.1 m^2 (which was equivalent to the water consumption of 30 L per mu). The system's operating speed was calibrated. The plastic pots to be treated were arranged evenly on the spraying platform to ensure uniform treatment. The spray pressure was set to 0.35 MPa, and the flow rate of the fan-shaped nozzle was set to 800 mL/min. The spraying was carried out in sequence from the low dosage to the high dosage. Each treatment was repeated two to four times.
The herbicide was applied once. After spraying, the pots were air-dried for one day and then placed in the glass greenhouse. Regular watering was conducted to maintain moisture.
The damage symptoms of the weeds (such as growth inhibition, chlorosis, malformation, etc.) were carefully recorded at 3, 7, 10, and 20 days after herbicide application. A visual comparison of the herbicide effectiveness was made. At 20 days post-application, the fresh weight of the aboveground parts of the weeds from each treatment group was measured, and the fresh weight control efficacy was calculated.

[3] = 3 to 7 days after application, grassy weeds and broadleaf weeds like Portulaca oleracea

## COC(=O)OC(C)Oc1c(C(=O)c2ccc(S(C)(=O)=O)c(C3=NOCC3)c2C)cnn1C (stereo not shown) [Compound I, 1-((4-(3-(4,5-dihydroisoxazol-3-yl)-2-methyl-4-(methylsulfonyl)benzoyl)-1-methyl-1H-pyrazol-5-yl)oxy)ethyl methyl carbonate]
Amaranthus retroflexus
  Control efficacy compared with Topramezone (in words): significantly better control efficacy
  Efficacy relative to that of Topramezone: approximately 2 times
  GR50: 2.86 g a.i./ha
  GR90: 5.64 g a.i./ha
Commelina communis
  Control efficacy compared with Topramezone (in words): significantly better control efficacy
  Efficacy relative to that of Topramezone: approximately 2 times
  GR50: 4.98 g a.i./ha
  GR90: 16.38 g a.i./ha
Cirsium setosum
  Control efficacy compared with Topramezone (in words): significantly better control efficacy
  Efficacy relative to that of Topramezone: approximately 2 times
  GR50: 5.56 g a.i./ha
  GR90: 20.60 g a.i./ha
Setaria viridis
  Control efficacy compared with Topramezone (in words): better control efficacy
  Efficacy relative to that of Topramezone: approximately 1.5 times
  GR50: 3.96 g a.i./ha
  GR90: 11.42 g a.i./ha
Chloris virgata
  Control efficacy compared with Topramezone (in words): better control efficacy
  Efficacy relative to that of Topramezone: approximately 1.5 times
  GR50: 2.25 g a.i./ha
  GR90: 10.81 g a.i./ha
Cyperus rotundus
  Control efficacy compared with Topramezone (in words): better control efficacy
  GR50: 11.78 g a.i./ha
  GR90: 29.57 g a.i./ha
Eclipta prostrata
  Control efficacy compared with Topramezone (in words): significantly better control efficacy
  Efficacy relative to that of Topramezone: approximately 2 times
  GR50: 2.30 g a.i./ha
  GR90: 11.62 g a.i./ha
Convolvulus arvensis
  Control efficacy compared with Topramezone (in words): significantly better control efficacy
  Efficacy relative to that of Topramezone: approximately 2 times
  GR50: 1.81 g a.i./ha
  GR90: 31.82 g a.i./ha
Acalypha australis
  Control efficacy compared with Topramezone (in words): significantly better control efficacy
  Efficacy relative to that of Topramezone: approximately 2 times
  GR50: 2.42 g a.i./ha
  GR90: 7.55 g a.i./ha
Chenopodium album
  Control efficacy compared with Topramezone (in words): significantly better control efficacy
  Efficacy relative to that of Topramezone: approximately 2 times
  GR50: 1.22 g a.i./ha
  GR90: 5.98 g a.i./ha
[1]
  Symptoms on the test weeds: clear pesticidal efficacy symptoms
[2]; [3]
  Visual observation of weeds: gradually became whitened and withered
[2]; 10 days after application
  Visual observation of weeds: excellent treatment effects
[2]; 20 days after application
  Visual observation of weeds: dried up and died

## Cc1c(C(=O)c2cnn(C)c2OC(=O)C(C)(C)C)ccc(S(C)(=O)=O)c1C1=NOCC1 [Compound II, 4-(3-(4,5-dihydroisoxazol-3-yl)-2-methyl-4-(methylsulfonyl)benzoyl)-1-methyl-1H-pyrazol-5-yl pivalate]
Amaranthus retroflexus
  GR50: 4.64 g a.i./ha
  GR90: 11.19 g a.i./ha
Commelina communis
  GR50: 13.73 g a.i./ha
  GR90: 39.85 g a.i./ha
Cirsium setosum
  GR50: 15.14 g a.i./ha
  GR90: 48.92 g a.i./ha
Setaria viridis
  GR50: 6.77 g a.i./ha
  GR90: 19.04 g a.i./ha
Chloris virgata
  GR50: 4.41 g a.i./ha
  GR90: 15.22 g a.i./ha
Cyperus rotundus
  GR50: 15.68 g a.i./ha
  GR90: 39.11 g a.i./ha
Eclipta prostrata
  GR50: 4.67 g a.i./ha
  GR90: 23.27 g a.i./ha
Convolvulus arvensis
  GR50: 7.31 g a.i./ha
  GR90: 58.43 g a.i./ha
Acalypha australis
  GR50: 6.04 g a.i./ha
  GR90: 16.46 g a.i./ha
Chenopodium album
  GR50: 2.83 g a.i./ha
  GR90: 11.74 g a.i./ha
[1]
  Symptoms on the test weeds: clear pesticidal efficacy symptoms
[2]; [3]
  Visual observation of weeds: gradually became whitened and withered
[2]; 10 days after application
  Visual observation of weeds: excellent treatment effects
[2]; 20 days after application
  Visual observation of weeds: dried up and died

## Cc1c(C(=O)c2cnn(C)c2O)ccc(S(C)(=O)=O)c1C1=NOCC1 [Topramezone]
Amaranthus retroflexus
  GR50: 4.05 g a.i./ha
  GR90: 11.29 g a.i./ha
Commelina communis
  GR50: 14.38 g a.i./ha
  GR90: 40.29 g a.i./ha
Cirsium setosum
  GR50: 15.89 g a.i./ha
  GR90: 49.41 g a.i./ha
Setaria viridis
  GR50: 6.72 g a.i./ha
  GR90: 19.16 g a.i./ha
Chloris virgata
  GR50: 3.33 g a.i./ha
  GR90: 15.81 g a.i./ha
Cyperus rotundus
  GR50: 16.11 g a.i./ha
  GR90: 39.22 g a.i./ha
Eclipta prostrata
  GR50: 6.33 g a.i./ha
  GR90: 23.72 g a.i./ha
Convolvulus arvensis
  GR50: 4.63 g a.i./ha
  GR90: 66.46 g a.i./ha
Acalypha australis
  GR50: 5.27 g a.i./ha
  GR90: 16.92 g a.i./ha
Chenopodium album
  GR50: 3.22 g a.i./ha
  GR90: 12.76 g a.i./ha
[1]
  Symptoms on the test weeds: clear pesticidal efficacy symptoms
[2]; [3]
  Visual observation of weeds: gradually became whitened and withered
[2]; 10 days after application
  Visual observation of weeds: excellent treatment effects
[2]; 20 days after application
  Visual observation of weeds: dried up and died
